Measurements: patent US20240215905A1, “WOUND DRESSING” (5D HEALTH PROTECTION GROUP LTD, priority 2021, published 2024)

Legend:
Pseudomonas = assay: Bacterial proliferation assay (Colony Forming Units) with added silver; assay type: cell-based; settings: for added Ag^+ concentration at which antibacterial efficacy is apparent: 0.3 ppm is the lowest concentration measured (range 0.3 to 300 ppm)
Description: To assess the antibacterial efficacy of the silver, and to correlate this with the sensor response, bacterial proliferation assays were performed on MHB2, PBS, NaNO3 and SWF solutions with added silver at concentrations between 0.3 to 300 ppm.

[1] = Optical density measurements indicating AgCl precipitates/aggregates in solution; assay type: physicochemical; settings: no bacteria present
Text: Optical density measurements can be used to indicate the presence of AgCl precipitates/aggregates in solution. […] No bacteria where present for the measurements.

SMILES: [Ag+] [Ag^+, silver ions]
- added Ag^+ concentration at which antibacterial efficacy is apparent (Pseudomonas; NaNO3 solution): ≤ 0.3 ppm
- added Ag^+ concentration at which antibacterial efficacy is apparent (Pseudomonas; PBS solution): ≤ 0.3 ppm
- added Ag^+ concentration at which antibacterial efficacy is seen (Pseudomonas; SWF (simulated wound fluid, 33 g/L BSA) solution): ≥ 30 ppm
- added Ag^+ concentration above which AgCl precipitation is seen (optical density) ([1]; PBS): above 1 ppm
- added Ag^+ concentration above which AgCl precipitation is seen (optical density) ([1]; SWF): above 30 ppm
